The assay has as its target T1, PLK4 (Homo sapiens, UniProt O00444).
T1 construct: expressed in transfected cells; host or cells: HEK293 T cells (ATCC CRL-3216)
T1 sequence (O00444 1-970): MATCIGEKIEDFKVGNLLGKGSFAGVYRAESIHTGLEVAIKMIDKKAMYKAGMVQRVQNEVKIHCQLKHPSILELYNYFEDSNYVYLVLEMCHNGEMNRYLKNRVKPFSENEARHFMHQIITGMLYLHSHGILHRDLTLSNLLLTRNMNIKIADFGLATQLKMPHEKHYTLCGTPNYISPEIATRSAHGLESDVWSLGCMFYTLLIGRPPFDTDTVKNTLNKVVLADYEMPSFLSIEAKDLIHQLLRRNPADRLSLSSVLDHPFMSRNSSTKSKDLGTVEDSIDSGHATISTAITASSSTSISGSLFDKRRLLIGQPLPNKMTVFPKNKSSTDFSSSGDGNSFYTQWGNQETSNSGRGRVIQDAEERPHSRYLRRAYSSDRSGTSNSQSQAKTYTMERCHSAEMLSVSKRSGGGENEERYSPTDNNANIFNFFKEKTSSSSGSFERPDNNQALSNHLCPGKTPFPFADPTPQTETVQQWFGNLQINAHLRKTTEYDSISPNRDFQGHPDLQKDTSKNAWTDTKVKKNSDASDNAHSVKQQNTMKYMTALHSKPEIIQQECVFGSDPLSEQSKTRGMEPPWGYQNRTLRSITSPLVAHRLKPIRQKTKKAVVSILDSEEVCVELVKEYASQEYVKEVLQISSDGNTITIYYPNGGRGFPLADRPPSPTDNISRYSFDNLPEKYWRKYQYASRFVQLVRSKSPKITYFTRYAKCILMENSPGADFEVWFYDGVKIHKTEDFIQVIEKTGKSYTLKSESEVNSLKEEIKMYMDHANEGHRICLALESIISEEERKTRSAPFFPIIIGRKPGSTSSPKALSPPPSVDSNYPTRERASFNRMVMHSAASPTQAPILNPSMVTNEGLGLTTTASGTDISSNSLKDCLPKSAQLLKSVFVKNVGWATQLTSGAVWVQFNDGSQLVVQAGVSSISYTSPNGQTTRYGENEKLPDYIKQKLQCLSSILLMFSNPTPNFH
Description: PLK4 NanoBRET target engagement assay. The class given is binding. The conditions noted are these: HEK293 T cells transfected with PLK4 NanoLuc fusion vector; K-5 tracer; 2 hrs incubation. On the procedure:
To determine the affinity of Compounds described herein in the PLK4 NanoBRET target engagement assay, HEK293 T cells (ATCC Product Number CRL-3216) are first transfected with the PLK4 NanoLuc fusion vector DNA and Transfection carrier DNA using the Fugene HD Transfection reagent in Opti-MEM No Phenol Red buffer. After an overnight incubation in a 37° C./5% CO2 incubator, the transfected HEK293 T cells are trypsinized, counted, and resuspended in Opti-MEM No Phenol Red buffer at a concentration of 200000 cells/mL. White 96-well plates are then plated with 85 μL of cells (17000 cells/well) to which 5 μL of the 20×K-5 tracer solution diluted in tracer dilution buffer is added. Finally, 10 μL of the 10× compounds are added and the plates and then incubated in a 37° C./5% CO2 incubator for 2 hrs. After the incubation, a 50 uL 3× solution of the substrate/inhibitor mix is added to the cells. The plate is then transferred in the Envision plate reader where the Acceptor emission (610 nm) and the Donor emission (450 nm) are measured.
The IC50 of compounds is determined as follows: • 1. The ratio between the Acceptor emission (610 nm)/Donor emission (450 nm) is calculated. • 2. This ratio is then multiplied by 1000 to obtain the mBRET units (multiplying by 1000 is an arbitrary step that simply makes the data easier to interpret; it has no impact on the data set itself) • 3. The mBRET units are then used in Scigilian Analyze software (https://analyze.scigilian.io) to determine the IC50 value using a 4-parameter fit analysis.
In general terms: Bioluminescence resonance energy transfer reports proximity on the nanometre scale.
As a reminder, the IC50 is the concentration that gives 50% inhibition. `COc1c(Nc2cc(C)[nH]n2)nc(N(C)c2ccc(CN(C(C)=O)c3ccccc3)cc2F)nc1-c1cnn(C)c1` [Compound 50] returned an IC50 of 770 nM. For the compound `COCCn1cc(-c2nc(N(C)c3c(F)cc(S(C)(=O)=O)cc3F)nc(Nc3cc(C)[nH]n3)c2C2CC2)nc1C` [Compound 188], the concentration for half-maximal inhibition (IC50) turned out to be 8 nM. Next, `Cc1cc(Nc2nc(N(C)c3c(F)cc(S(C)(=O)=O)cc3F)nc(-c3cnn(C)c3C(=O)N(C)C)c2C2CC2)n[nH]1` [Compound 260]: 5 nM; `COCCn1ncc(-c2nc(N(C)c3c(F)cc(S(C)(=O)=O)cc3F)nc(Nc3cc(C)[nH]n3)c2C2CC2)c1C` [Compound 161]: 4 nM. Next, `Cc1cc(Nc2nc(N(C)c3c(F)cc(S(C)(=O)=O)c(Cl)c3F)nc(-c3cnn(C)c3)c2C2CC2)n[nH]1` [Compound 120]: 19 nM; `Cc1cc(Nc2nc(N(C)c3c(F)cc([N+](=O)[O-])cc3F)nc(-c3cn(C)cn3)c2C2CC2)n[nH]1` [Compound 360]: 10 nM; `Cc1cc(Nc2nc(N(C)c3c(F)cc(S(=O)(=O)C4CC4)cc3F)nc(-c3cn(C)cn3)c2C2CC2)n[nH]1` [Compound 347]: 5 nM. For `COc1c(Nc2cc(C)[nH]n2)nc(N(C)c2ccc3c(c2)CCS3(=O)=O)nc1-c1cnn(C)c1` [Compound 68] the value was 1000 nM; for `Cc1cc(Nc2nc(N(C)c3cc(F)c(S(C)(=O)=O)cc3F)nc(-c3cn(C4CC4)c(C)n3)c2C2CC2)n[nH]1` [Compound 242], 5 nM.

On to `Cc1cc(Nc2nc(N(C)c3c(F)cc(CC(=O)N(C)C)cc3F)nc(-c3cn(C)cn3)c2C2CC2)n[nH]1` [Compound 361], for which the IC50 is above 5000 nM. For `Cc1cc(Nc2nc(N(C)c3c(F)cc(S(C)(=O)=O)cc3F)nc(-c3cnn(C)c3C(O)(O)C(F)(F)F)c2C2CC2)n[nH]1` [Compound 306] the value was 94 nM; for `COc1c(Nc2cc(C)[nH]n2)nc(N(C)c2cccc(C(=O)N(C)C)c2F)nc1-c1cnn(C)c1` [Compound 71], 740 nM; for `COc1c(Nc2cc(C)[nH]n2)nc(Sc2ccc(S(C)(=O)=O)cc2F)c(Cl)c1-c1cnn(C)c1` [Compound 100], 240 nM. The compound `Cc1cc(Nc2nc(N(C)c3c(F)cc(S(C)(=O)=O)cc3F)nc(-c3cnn(C)c3N3CCCC3=O)c2C2CC2)n[nH]1` [Compound 304] showed an IC50 of 8 nM. Next, `Cc1cc(Nc2nc(N(C)c3c(F)cc(S(C)(=O)=O)cc3F)nc(-c3cn(C)c(C(F)F)n3)c2C2CC2)n[nH]1` [Compound 165]: 4 nM. Next, `CN(c1nc(Nc2cc(C3CC3)[nH]n2)c(C2CC2)c(-c2cn(C)cn2)n1)c1ccc(S(C)(=O)=O)cc1F` [Compound 315]: 23 nM. For `COc1c(Nc2cc(C)[nH]n2)nc(Nc2ccc(S(C)(=O)=O)cc2F)nc1-c1cnn(C)c1` [Compound 1, N^2-(2-fluoro-4-(methylsulfonyl)phenyl)-5-methoxy-N^4-(5-methyl-1H-pyrazol-3-yl)-6-(1-methyl-1H-pyrazol-4-yl)pyrimidine-2,4-diamine] the value was 220 nM; for `Cc1cc(Nc2nc(N(C)c3c(F)cc(S(C)(=O)=O)cc3F)nc(-c3nn(C)cc3C(N)=O)c2C2CC2)n[nH]1` [Compound 281], 340 nM; for `Cc1cc(Nc2nc(N(C)c3c(F)cc(S(C)(=O)=O)cc3F)nc(-c3ccncn3)c2C2CC2)n[nH]1` [Compound 135], 18 nM. `COC(C)c1nc(-c2nc(N(C)c3c(F)cc(S(C)(=O)=O)cc3F)nc(Nc3cc(C)[nH]n3)c2C2CC2)cn1C` (centres unmarked) [Compound 244] showed an IC50 of 10 nM. The compound `Cc1cc(Nc2nc(N(C)c3c(F)cc(S(C)(=O)=O)cc3F)nc(-c3cnn(C)c3N)c2C2CC2)n[nH]1` [Compound 181] returned an IC50 of 29 nM. For `CC(=O)c1c(-c2nc(N(C)c3c(F)cc(S(C)(=O)=O)cc3F)nc(Nc3cc(C)[nH]n3)c2C2CC2)cnn1C` [Compound 307] the value was 19 nM; for `Cc1cc(-c2nc(N(C)c3c(F)cc(S(C)(=O)=O)cc3F)nc(Nc3cc(C)[nH]n3)c2C2CC2)cnn1` [Compound 130], 24 nM; for `Cc1cc(Nc2nc(N(C)c3c(F)cc(S(C)(=O)=O)cc3F)nc(-c3cn4c(n3)CNCC4)c2C2CC2)n[nH]1` [Compound 211], 40 nM. For `Cc1cc(Nc2nc(N(C)c3c(F)cc(S(C)(=O)=O)cc3F)nc(-c3cc(C(=O)N(C)C)n(C)n3)c2C2CC2)n[nH]1` [Compound 319] the value was 5 nM; for `COCCn1ncc(-c2nc(N(C)c3cc(F)c(S(C)(=O)=O)cc3F)nc(Nc3cc(C)[nH]n3)c2C2CC2)c1C` [Compound 222], 15 nM. For `Cc1cc(Nc2nc(N(C)c3cc(F)c(S(C)(=O)=O)cc3F)nc(-c3cn4c(n3)CCOC4)c2C2CC2)n[nH]1` [Compound 210] the value was 8 nM. Consider `Cc1cc(Nc2nc(N(C)c3c(F)cc(S(C)(=O)=O)cc3F)nc(-c3nccn3C)c2C2CC2)n[nH]1` [Compound 142], for which the midpoint of inhibition, the IC50, lay at 13 nM. Next, `COc1c(-c2cnn(C)c2)cc(N(C)c2ccc(S(C)(=O)=O)cc2F)nc1Nc1cc(C)[nH]n1` [Compound 19, N^6-(2-fluoro-4-(methylsulfonyl)phenyl)-3-methoxy-N^6-methyl-N^2-(5-methyl-1H-pyrazol-3-yl)-4-(1-methyl-1H-pyrazol-4-yl)pyridine-2,6-diamine]: 56 nM. For `Cc1cc(Nc2nc(N(C)c3c(F)cc(B(O)O)cc3F)nc(-c3cn(C)cn3)c2C2CC2)n[nH]1` [Compound 351] the value was 52 nM; for `COc1c(Nc2cc(C)[nH]n2)nc(N(C)c2c(F)cc(S(C)(=O)=O)cc2F)nc1-c1cnn(C)c1` [Compound 8, N^2-(2,6-difluoro-4-(methylsulfonyl)phenyl)-5-methoxy-N^2-methyl-N^4-(5-methyl-1H-pyrazol-3-yl)-6-(1-methyl-1H-pyrazol-4-yl)pyrimidine-2,4-diamine], 6 nM; for `Cc1cc(Nc2nc(N(C)c3c(F)cc(S(C)(=O)=O)cc3F)nc(-c3cn(CCS(C)(=O)=O)c(C)n3)c2C2CC2)n[nH]1` [Compound 192], 610 nM. Next, `COc1c(Nc2cc(C)[nH]n2)nc(Oc2ccc(N(C)S(C)(=O)=O)cc2)nc1-c1cnn(C)c1` [Compound 31]: 620 nM; `COc1c(Nc2cc(C)[nH]n2)nc(N(C)c2ccc(S(C)(=O)=O)nc2)nc1-c1cnn(C)c1` [Compound 58]: 1100 nM; `COc1c(Nc2cc(C)[nH]n2)nc(N(c2ccc(S(C)(=O)=O)cc2F)C(C)C)nc1-c1cnn(C)c1` [Compound 84]: 140 nM.

For `Cc1cc(Nc2nc(N(C)c3ccc(S(C)(=O)=O)cc3F)nc(-c3cnnn3C)c2C2CC2)n[nH]1` [Compound 43], half-maximal inhibition (IC50) was put at 180 nM. For `Cc1cc(Nc2nc(N(C)c3c(F)cc(S(C)(=O)=O)cc3F)nc(-c3nc(C)[nH]c3C)c2C2CC2)n[nH]1` [Compound 168] the value was 41 nM; for `Cc1cc(Nc2nc(N(C)c3c(F)cc(S(C)(=O)=O)cc3F)nc(-c3cnn(C)c3CC#N)c2C2CC2)n[nH]1` [Compound 308], 2 nM; for `Cc1cc(Nc2nc(N(C)c3c(F)cc(S(C)(=O)=O)cc3F)nc(-c3cn(C)c(C(C)(C)O)n3)c2C2CC2)n[nH]1` [Compound 323], 10 nM.

Consider `Cc1cc(Nc2nc(N(C)c3c(F)cc(S(C)(=O)=O)cc3F)nc(-c3nn(C)cc3CO)c2C2CC2)n[nH]1` [Compound 218], for which half-maximal inhibition (IC50) was put at 53 nM. Turning to `Cc1cc(Nc2nc(N(C)c3c(F)cc(S(C)(=O)=O)cc3F)nc(-c3cn[nH]c3)c2C2CC2)n[nH]1` [Compound 40], the IC50 came out at 10 nM.

(Values after US20250177396A1, “POLO-LIKE KINASE 4 (PLK4) INHIBITORS, PHARMACEUTICAL COMPOSITIONS, METHODS OF PREPARATION AND USES THEREOF” (Repare Therapeutics Inc., priority 2022, published 2025).)
